From PubChem BioAssay (NCI)
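Cells were grown in 96-well plates and exposed to each compound for 48 hours at five concentrations; endpoints were interpolated linearly between bracketing concentrations, or set to the highest concentration if not reached. GI50 is the concentration that inhibits growth by half. Definition used: TGI = concentration required for complete inhibition of growth.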

Assays:
Experiment in all cases: DTP human tumour cell line panel, 48 h
SNB-19 CNS = tested on: SNB-19 CNS
HCC-2998 colon = tested on: HCC-2998 colon
IGROV1 ovarian = tested on: IGROV1 ovarian
EKVX NSCLC = tested on: EKVX NSCLC
SN12C renal = tested on: SN12C renal
A549 NSCLC = tested on: A549 NSCLC
SK-MEL-5 melanoma = tested on: SK-MEL-5 melanoma
SF-539 CNS = tested on: SF-539 CNS
DU-145 prostate = tested on: DU-145 prostate
BT-549 breast = tested on: BT-549 breast

| Structure (SMILES) | TGI (SNB-19 CNS) [µM] | TGI (HCC-2998 colon) [µM] | TGI (IGROV1 ovarian) [µM] | TGI (EKVX NSCLC) [µM] | TGI (SN12C renal) [µM] | TGI (A549 NSCLC) [µM] | TGI (SK-MEL-5 melanoma) [µM] | TGI (SF-539 CNS) [µM] | GI50 (DU-145 prostate) [µM] | TGI (DU-145 prostate) [µM] | GI50 (SNB-19 CNS) [µM] | GI50 (HCC-2998 colon) [µM] | GI50 (SN12C renal) [µM] | GI50 (A549 NSCLC) [µM] | GI50 (SK-MEL-5 melanoma) [µM] | GI50 (BT-549 breast) [µM] | TGI (BT-549 breast) [µM] | GI50 (SF-539 CNS) [µM] | GI50 (IGROV1 ovarian) [µM] |
| --- | --- | --- | --- | --- | --- | --- | --- | --- | --- | --- | --- | --- | --- | --- | --- | --- | --- | --- | --- |
| COc1cc2c(c3oc(-c4ccc5c(c4)OCO5)c(O)c(=O)c13)CCC(C)(C)O2 | > 100 | > 100 | > 100 | > 100 | > 100 | > 100 | > 100 | > 100 | – | – | – | – | – | – | – | – | – | – | – |
| CCOC(=O)c1c(-c2[nH]c(C(=O)OCc3ccccc3)c(C)c2C(=O)OCC)[nH]c(C(=O)OCc2ccccc2)c1C | – | > 100 | > 100 | > 100 | > 100 | > 100 | > 100 | > 100 | – | – | – | – | – | – | – | – | – | – | – |
| COc1ccc(CNc2nc3ccccc3nc2-c2cccs2)cc1OC | > 100 | > 100 | – | > 100 | > 100 | > 100 | – | > 100 | – | – | – | – | – | – | – | – | – | – | – |
| O=C(O)c1cn(C2CC2)c2cc(N3CCN(S(=O)(=O)c4ccc(Cl)c(Cl)c4)CC3)c(F)cc2c1=O | > 100 | > 100 | – | – | > 100 | > 100 | 4.42 | > 100 | 4.31 | > 100 | 3.25 | 4.46 | 2.97 | 3.08 | 2.04 | 2.98 | > 100 | 3.39 | – |
| CSc1nc2c(nc(N)n2C2OCC(O)C(O)C2O)c(=O)[nH]1 (stereo not drawn) | > 100 | > 100 | > 100 | > 100 | > 100 | > 100 | > 100 | > 100 | – | – | – | – | – | – | – | – | – | – | – |
| O=C1c2cnccc2Cc2cccc3c2N1c1ccccc1S3 | 74.6 | 41 | 98.9 | – | > 100 | > 100 | 39 | 43.3 | – | – | – | – | – | – | – | – | – | – | – |
| O=C1C=C(N2CC2)c2ccccc2C1=O | 3.35 | 3.86 | 3.23 | – | 3.22 | 4.7 | 3.04 | 3.34 | 1.34 | 2.66 | 1.83 | 1.76 | 1.76 | 2.07 | 1.6 | 1.4 | 2.73 | 1.83 | 1.79 |
| COC(=O)Nc1nc2c(OC)c(OC)c(OC)cc2[nH]1 | > 100 | > 100 | > 100 | – | > 100 | > 100 | > 100 | 73.3 | 32 | > 100 | 45.7 | 55.6 | 74 | 14.8 | 9.34 | 50.4 | > 100 | 18.6 | 22.1 |
| OCCc1cnco1 | > 100 | > 100 | > 100 | > 100 | > 100 | > 100 | > 100 | > 100 | – | – | – | – | – | – | – | – | – | – | – |
| CSc1nc(Cl)c(Br)c(Nc2c[nH]c(=O)[nH]c2=O)n1 | 44.9 | 42.2 | 19.9 | 33.8 | 35.3 | 89.5 | 42.6 | 45.2 | – | 49.9 | – | – | – | – | – | – | – | – | – |
| COc1cc(C2[C@H]3C(=O)N(c4ccc(Cc5ccc(N6C(=O)[C@@H]7ON(c8ccccc8)C(c8cc(OC)c(OC)c(OC)c8)[C@@H]7C6=O)cc5)cc4)C(=O)[C@H]3ON2c2ccccc2)cc(OC)c1OC (stereo partly drawn) | > 100 | > 100 | > 100 | > 100 | > 100 | > 100 | > 100 | > 100 | – | – | – | – | – | – | – | – | – | – | – |
